Source: PMC8991199, “Promiscuity mapping of the S100 protein family using a high-throughput holdup assay” (Scientific Reports, 2022)

Assay: solubility by light scattering
Conditions: 20 mM HEPES, 150 mM NaCl, 2 mM CaCl2, pH 7.5, 10 nM to 1 mM, triplicates
Protocol: Foldamers were dissolved in a buffer consisting of 20 mM HEPES, 150 mM NaCl, 2 mM CaCl2, pH = 7.5 at 11 different concentrations from 10 nM to 1 mM. 100 μl samples in triplicates were pipetted into a 96-well ELISA plate and absorbance values were recorded by using FLUOstar OPTIMA plate reader at 650 nm wavelength.

## NC(=O)[C@H](CCCCNC(=O)c1ccc2c(c1)C1(OC2=O)c2ccc(O)cc2Oc2cc(O)ccc21)NC(=O)CNC(=O)[C@H]1CCCC[C@@H]1NC(=O)C[C@H](Cc1c[nH]c2ccccc12)NC(=O)[C@H]1CCCC[C@@H]1NC(=O)[C@H]1CCCC[C@@H]1NC(=O)C[C@H](Cc1c[nH]c2ccccc12)NC(=O)[C@H]1CCCC[C@@H]1N [fWW]
Fig. S2, absorbance at 650 nm
  concentration above which light scattering is increased: above 1 μM
Light scattering on 600 nm (text; method: absorbance at 650 nm)
  concentration at which aggregation was observed: 10 µM
